The source of these data is patent US10150729B2, “Tranilast compositions and cocrystals” (NUFORMIX LIMITED, priority 2012, dated 2018).

Read-outs that look alike come from different tables or passages of the source.

The nature of series [1]: Solution photostability study (UV irradiation, HPLC). The following applies: dissolved in DMSO/MeOH/water; UV light; 24 hrs.
Experimental: (§1) This study explored the photostability of the 1:1 tranilast nicotinamide cocrystal, the 1:1 tranilast saccharin cocrystal, the 1:1 tranilast gentisic acid cocrystal, the 1:1 salicylic acid cocrystal, the 1:1 tranilast urea cocrystal, the 1:1 tranilast 4-aminobenzoic acid cocrystal and the 1:1 tranilast 2,4-dihydroxybenzoic acid cocrystal once dissolved in solution and to compare these with the solution photostability of pure tranilast. A 1 mg sample of crystalline tranilast and the seven cocrystal forms were each weighed into a clear glass vial. Each sample was dissolved in a mixture of DMSO (200 μl), MeOH (600 μl) and water (600 μl). The vials were placed into a Vindon Scientific Photostability cabinet and irradiated with UV light (average Klux=18.2 (18.2 Lux/hour), average UV values=2.55 watts/minute, temperature=31.0-32.0° C.). The percentage of tranilast remaining in each sample, that had not undergone degradation into the cis-isomer, dimer or any other degradation product, was determined after 24 hours using HPLC.
The nature of series [2]: Solid-state photostability study (UV irradiation, HPLC). The following applies: UV light; for photostability in the solid-state: compared to pure crystalline tranilast.
Experimental: A study was, therefore, carried out to determine the solid-state photostability of the 1:1 tranilast nicotinamide cocrystal, the 1:1 tranilast saccharin cocrystal, the 1:1 tranilast gentisic acid cocrystal, the 1:1 salicylic acid cocrystal, the 1:1 tranilast urea cocrystal, the 1:1 tranilast 4-aminobenzoic acid cocrystal and the 1:1 tranilast 2,4-dihydroxybenzoic acid cocrystal and to compare this with the solid state photostability of pure crystalline tranilast. A 1-2 mg sample of crystalline tranilast and the seven cocrystal forms were each weighed and spread over the bottom surface of a clear glass vial. The vials were placed into a Vindon Scientific Photostability cabinet and irradiated with UV light (average Klux=18.2 (18.2 Lux/hour), average UV values=2.55 watts/minute, temperature=31.0-32.0° C.). The percentage of tranilast remaining in each sample, that had not undergone degradation into the cis-isomer, dimer or any other degradation product, was determined at 3, 24 and 48 hours using HPLC.
The conditions of series [3]: buffer, 24 h.
Experimental: as §1
A short description of series [4]: Dissolution study in purified water containing 2% SDS. The class given is physicochemical. As for the experimental part: For poorly soluble drugs, such as tranilast, the rate of dissolution of the drug form used can have an impact on the overall absorption and thus bioavailability of the drug, especially for example, in the case of oral solid dosage or inhalation delivery methods. […] The dissolution experiment was carried out for tranilast and each of the cocrystal forms at a concentration equivalent to 0.4 mg tranilast/ml in purified water containing 2% SDS. This study compared the dissolution rates of the cocrystals versus pure crystalline tranilast, because of the extremely low solubility of crystalline tranilast in aqueous media, the surfactant sodium dodecyl sulfate (SDS) was added to the dissolution media to allow easier analytical detection. Samples were collected and analysed at 1, 5, 10 and 30 minute time points. The samples were analysed by HPLC using the method described in Table 10. FIG. 32 illustrates the dissolution profiles from a single dataset for each of the tranilast cocrystals alongside crystalline tranilast over the 30 minute time period in the aqueous 2% SDS solution. The dissolution data is corrected within error limits of the analytical method described (estimated at ±10%). […] Most of the cocrystals reach almost their maximum dissolution within the first minute.

Series [5] can be described thus: Physical stability study of the cocrystal under accelerated conditions (40° C./75% RH), examined by XRPD. The class given is physicochemical. As for the experimental part:
X-Ray Powder Diffraction patterns at the required time points were collected on a PANalytical diffractometer using Cu Kα radiation (45 kV, 40 mA), θ-θ goniometer, focusing mirror, divergence slit (½″), soller slits at both incident and divergent beam (4 mm) and a PIXcel detector. The software used for data collection was X'Pert Data Collector, version 2.2f and the data was presented using X'Pert Data Viewer, version 1.2d. Instrument verification was performed using a silicon and benzoic acid standard, performed with the same batch program as listed below for sample analysis. Samples were run under ambient conditions and were analysed by transmission foil XRPD, using the powder as received. Approximately 2-5 mg of the sample was mounted on a 96 position sample plate supported on a polyimide (Kapton, 12.7 μm thickness) film. Plate height (Z) was set to 9 mm. Data was collected in the range 3-40° 2θ with a continuous scan (speed of 0.2° 2θ/s).
A stability study was carried out to examine the physical stability of the 1:1 tranilast nicotinamide cocrystal with respect to dissociation into its starting components over time under accelerated conditions. Approximately 1-2 mg of the 1:1 tranilast nicotinamide cocrystal was placed in seven clear glass vials. The glass vials were loosely sealed with plastic screw caps so as to provide a barrier to solid transfer but to still allow moisture equilibration with the outer environment. The vial head space above the sample was estimated to be >95% of the total vial volume. All seven samples were then placed on a tray and stored within a stability cabinet set at 40° C./75% RH. At every time point examined the XRPD pattern obtained was characteristic of the 1:1 tranilast nicotinamide cocrystal with no evidence of either of the starting materials, or any new peaks to indicate conversion to a different crystalline form. FIG. 7 illustrates the XRPD patterns obtained at the time points 0, three months and six months. FIG. 7 is an overlay of the XRPD patterns of the 1:1 tranilast nicotinamide cocrystal at those time points during a 6 month accelerated stability study at 40° C./75% RH.

Consider `COc1ccc(/C=C/C(=O)Nc2ccccc2C(=O)O)cc1OC.Nc1ccc(C(=O)O)cc1`, for which the “percentage of tranilast remaining” value in series [1] was determined as 76.2%; in series [2] (3 hrs), 99.8%; in series [2] (24 hrs), 98.2%; in series [2] (48 hrs), 99.7%. Moreover, the “photostability in the solid-state” value in series [2] was “comparable photostability”.

`COc1ccc(/C=C/C(=O)Nc2ccccc2C(=O)O)cc1OC.O=C(O)c1cc(O)ccc1O` [1:1 Tranilast Gentisic Acid Cocrystal]: the “percentage of tranilast remaining” value in series [3] amounted to 76.3%, the “percentage of tranilast remaining” value (3 h) is 99.6%, the “percentage of tranilast remaining” value (24 h) is listed as 99.8% and the “percentage of tranilast remaining” value (48 h) is on record as 99.9%.

For the compound `COc1ccc(/C=C/C(=O)Nc2ccccc2C(=O)O)cc1OC.NC(=O)c1cccnc1` [1:1 Tranilast Nicotinamide Cocrystal], the “percentage of tranilast remaining” value in series [1] is 80.2%; in series [2] (3 hrs), 99.3%; in series [2] (24 hrs), 99.9%; in series [2] (48 hrs) it was 99.9%. For the same compound, in series [4] (within 1 minute), the dissolution reached entry is “almost complete dissolution”. The “XRPD Characterization” value in series [5] (1 month), in series [5] (1 week), in series [5] (2 months), in series [5] (2 week), in series [5] (3 months) and in series [5] (3 week) was “cocrystal” in each case. The “XRPD Characterization” value in series [5] (6 months) and in series [5] (time point 0) was “cocrystal” in each case. Further, the “physical stability with respect to dissociation or conversion to another crystalline form” value in series [5] (six month period) is recorded as “stable”. Also, the “photostability in the solid-state” value in series [2] was “comparable photostability”.

Regarding `COc1ccc(/C=C/C(=O)Nc2ccccc2C(=O)O)cc1OC.O=C1NS(=O)(=O)c2ccccc21` [1:1 Tranilast Saccharin Cocrystal], the “percentage of tranilast remaining” value in series [1] is on record as 71.0%; in series [2] (3 hrs), 99.8%; in series [2] (24 hrs), 99.6%; in series [2] (48 hrs) it was 99.1%. Further, the “photostability in the solid-state” value in series [2] is “comparable photostability”.

Turning to `COc1ccc(/C=C/C(=O)Nc2ccccc2C(=O)O)cc1OC.O=C(O)c1ccccc1O` [1:1 Tranilast Salicyclic Acid Cocrystal], the “percentage of tranilast remaining” value in series [1] was 77.5%; in series [2] (3 hrs) it was 99.8%; in series [2] (24 hrs), 99.6%; in series [2] (48 hrs), 98.7%. Besides, the “photostability in the solid-state” value in series [2] is “comparable photostability”.

Take `COc1ccc(/C=C/C(=O)Nc2ccccc2C(=O)O)cc1OC.NC(N)=O` [1:1 Tranilast Urea Cocrystal]: the “percentage of tranilast remaining” value is 76.4% in series [1], 99.8% in series [2] (3 hrs), 99.6% in series [2] (24 hrs) and 99.9% in series [2] (48 hrs). For the same compound, the “photostability in the solid-state” value in series [2] is recorded as “comparable photostability”.

Consider `COc1ccc(/C=C/C(=O)Nc2ccccc2C(=O)O)cc1OC` [Crystalline Tranilast, 2-[[3-(3,4-dimethoxyphenyl)-1-oxo-2-propenyl]amino] benzoic acid, reference compound], for which the “percentage of tranilast remaining” value in series [1] is recorded as 66.2%; in series [2] (3 hrs), 98.9%; in series [2] (24 hrs), 99.8%; in series [2] (48 hrs) it was 99.7%. The dissolved result in series [4] (after 1 minute, 0.4 mg tranilast/ml) is “about 5%”.
